Test results taken from patent US10053457B2, “Hydroxyalkyl-piperazine derivatives as CXCR3 receptor modulators” (IDORSIA PHARMACEUTICALS LTD, priority 2015, dated 2018).

What was measured:
Format in all cases: cell-based
[1] = target: human CXCR3A (Homo sapiens (Human), UniProt P49682); assay: FLIPR assay (CXCL10-induced calcium signal); conditions: CHO-K1 cells expressing human CXCR3A coupled to Galpha(16); CXCL10 agonist 20 nM; mean values
Description: (§1) In the case where IC50 values have been determined several times for the same compound, mean values are given.

[2] = target: CXCR3 (Homo sapiens (Human), UniProt P49682); assay: Receptor internalization assay in human whole blood (CXCR3 surface expression on CD4 positive cells, CXCL10); conditions: final CXCL10 9 nM, 30 min at 37° C., mean values
Sequence of CXCR3 (P49682 whole entry): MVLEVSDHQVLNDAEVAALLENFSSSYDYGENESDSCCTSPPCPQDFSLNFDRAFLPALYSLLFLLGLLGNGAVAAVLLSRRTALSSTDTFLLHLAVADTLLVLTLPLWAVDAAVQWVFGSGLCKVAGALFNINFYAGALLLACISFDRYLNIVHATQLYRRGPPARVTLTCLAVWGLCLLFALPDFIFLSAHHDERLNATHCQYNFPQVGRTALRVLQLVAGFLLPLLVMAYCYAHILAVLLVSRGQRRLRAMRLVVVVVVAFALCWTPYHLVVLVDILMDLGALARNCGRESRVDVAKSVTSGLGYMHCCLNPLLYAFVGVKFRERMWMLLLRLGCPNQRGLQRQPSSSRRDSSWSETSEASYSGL
Description: Diluted compounds are then mixed with an equal volume of CXCL10 (Peprotech) diluted in PBS. Anticoagulated venous human whole blood is added to the mixture, which is then incubated in a CO2 incubator at 37° C. to allow for ligand mediated receptor internalization (final CXCL10 concentration is 9 nM). After 30 min, the blood is mixed with fluorescently labeled CXCR3 and CD4 specific antibodies (Becton Dickinson) and incubated on ice for 10 minutes. Samples are then mixed with BD FACS Lysing Solution (Becton Dickinson) in order to eliminate red blood cells. After washing the cells with PBS containing 0.5% BSA, the samples are then analyzed in a flow cytometer (FACS Canto II, Becton Dickinson). For data analysis using FACSDiva software (Becton Dickinson), the mean fluorescence corresponding to CXCR3 cell surface expression was determined on CD4 positive cells. The program GraphPad Prism or similar software is used to fit the data to a single site dose response curve and to calculate IC50 values.
as §1

[3] = target: hERG K channel (Homo sapiens (Human), UniProt Q12809); assay: hERG Q-Patch assay; conditions: CHO cells expressing hERG, K+ tail current 3 min after application, mean of two or three experiments
Sequence of hERG K channel (Q12809 whole entry): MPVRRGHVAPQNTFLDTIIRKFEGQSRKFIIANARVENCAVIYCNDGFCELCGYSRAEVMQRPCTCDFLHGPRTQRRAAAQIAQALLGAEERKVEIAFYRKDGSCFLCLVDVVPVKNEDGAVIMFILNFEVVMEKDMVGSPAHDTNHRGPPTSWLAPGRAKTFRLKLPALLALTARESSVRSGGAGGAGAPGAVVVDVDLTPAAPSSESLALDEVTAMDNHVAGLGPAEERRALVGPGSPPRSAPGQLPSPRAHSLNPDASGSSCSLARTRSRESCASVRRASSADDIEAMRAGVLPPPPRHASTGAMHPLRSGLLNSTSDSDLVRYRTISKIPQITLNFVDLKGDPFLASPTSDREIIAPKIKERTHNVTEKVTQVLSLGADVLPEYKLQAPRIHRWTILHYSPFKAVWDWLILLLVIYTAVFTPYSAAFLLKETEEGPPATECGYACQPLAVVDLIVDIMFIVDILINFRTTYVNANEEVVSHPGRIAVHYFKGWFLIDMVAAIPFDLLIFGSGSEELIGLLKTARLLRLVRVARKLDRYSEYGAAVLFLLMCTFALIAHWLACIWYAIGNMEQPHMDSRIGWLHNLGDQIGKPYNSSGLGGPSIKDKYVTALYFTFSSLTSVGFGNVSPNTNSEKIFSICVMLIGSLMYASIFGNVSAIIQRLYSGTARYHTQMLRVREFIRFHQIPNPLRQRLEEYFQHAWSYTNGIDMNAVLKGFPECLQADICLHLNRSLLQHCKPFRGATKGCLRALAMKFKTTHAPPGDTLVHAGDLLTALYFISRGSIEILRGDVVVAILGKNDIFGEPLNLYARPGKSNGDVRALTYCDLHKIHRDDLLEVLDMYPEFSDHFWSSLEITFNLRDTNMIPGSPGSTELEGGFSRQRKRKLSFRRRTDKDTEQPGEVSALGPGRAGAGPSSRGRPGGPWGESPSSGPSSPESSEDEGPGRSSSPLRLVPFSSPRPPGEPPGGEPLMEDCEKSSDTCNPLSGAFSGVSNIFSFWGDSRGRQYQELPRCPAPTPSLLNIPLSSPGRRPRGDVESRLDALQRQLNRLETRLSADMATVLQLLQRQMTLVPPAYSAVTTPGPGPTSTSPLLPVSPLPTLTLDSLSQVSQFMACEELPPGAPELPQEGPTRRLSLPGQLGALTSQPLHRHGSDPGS
Description: Compounds are evaluated for block of the hERG K channel using CHO cells stably expressing the hERG gene (accession number U04270, bSys, Witterswil, Switzerland) and the QPatch robotic platform (Sophion, Ballerup, Denmark) in single-cell mode at room temperature. Cells are grown in culture flasks at 37° C. in 5% CO2, in culture medium (Ham's F-12 Nutrient Mixture, Invitrogen 21765-029) supplemented with 9% (v/v) fetal calf serum, 0.9% Penicillin/Streptomycin (10,000 U/mL, Invitrogen 15140148), 100 μg/mL Hygromycin B (Invitrogen 10687010). When the cells are ˜80% confluent (every 2-3 days), they are either split for further culture or used for electrophysiology. For further culture, cells are detached with 0.25% Trypsin EDTA solution (Invitrogen 25200-056) and a fraction of the cells (10-30%) is reseeded in culture medium. For electrophysiology, on the experimental day, cells are detached with 0.25% Trypsin EDTA solution and all cells are suspended in suspension medium (293 SFM II, Invitrogen 11686-029) supplemented with 20 mM HEPES and 0.04 mg/mL Trypsin inhibitor. Cells are kept in suspension medium at 32-35° C. in the QPatch robot until use, at which time aliquots are transferred to the extracellular solution (in mM: NaCl 150; KCl 4; CaCl2 1.2; MgCl2 1; HEPES 10; pH 7.4 with NaOH) containing 0.3% v/v DMSO and applied to the test plates. K^+ currents are measured with the patch-voltage-clamp technique in the whole-cell configuration with the internal solution (in mM: KCl, 140; NaCl, 10; MgCl2, 1; HEPES, 10: EGTA, 5; pH=7.2 with KOH). Currents are low-pass filtered using the internal Bessel filter of the QPatch robot with a cut-off frequency of 2 kHz and are digitized at 10 kHz. K^+ tail currents are produced from a holding voltage of −80 mV by a 500-ms depolarization to +20 mV followed by a 500-ms repolarization to −40 mV; tail current amplitudes are measured at the end of the repolarization to −40 mV. The pulse pattern is repeated every 10 sec during the experiment, baseline K^+ current is measured after 3 min in extracellular solution, test-solution containing compound is then applied, and K^+ current in presence of compound is measured 3 minutes after application to the cells. The respective test-solution is prepared by (1) dissolving the test-compound in pure DMSO, (2) diluting this DMSO solution in extracellular solution, and (3) adding further DMSO, such that the final test-solution has a concentration of either 300 nM or 3000 nM of the test-compound and contains 0.3% v/v DMSO. Compound effects are quantified as % block by dividing the current in presence of compound by the baseline current; two or three experiments are performed for each compound and the final value represents the mean of the results of each experiment.

Sequence of human CXCR3A (P49682 whole entry): as the sequence (P49682 whole entry) above

IC50 [1] | IC50 [2] | Structure (SMILES) | % block ([3]; concentration 300 nM) | % block ([3]; concentration 3000 nM)
1.1 nM | 214 nM | O=C(Cn1cnc(C(F)(F)F)n1)N1CCN(c2sc(C(F)(F)F)nc2-c2cnc(C(F)(F)F)nc2)C[C@H]1CCO [Example 28, 1-{(R)-2-(2-Hydroxy-ethyl)-4-[2-trifluoromethyl-4-(2-trifluoromethyl-pyrimidin-5-yl)-thiazol-5-yl]-piperazin-1-yl}-2-(3-trifluoromethyl-[1,2,4]triazol-1-yl)-ethanone] | 6% | 40%
1.2 nM | 1050 nM | O=C(Cn1cnc2ccccc21)N1CCN(c2sc(C(F)(F)F)nc2-c2cnc(C(F)(F)F)nc2)C[C@@H]1CO [Example 13, 2-Benzoimidazol-1-yl-1-{(R)-2-hydroxymethyl-4-[2-trifluoromethyl-4-(2-trifluoromethyl-pyrimidin-5-yl)-thiazol-5-yl]-piperazin-1-yl}-ethanone] | 5% | 17%
4.3 nM | 737 nM | CC(O)c1ncn(CC(=O)N2CCN(c3sc(C(F)(F)F)nc3-c3cnc(C(F)(F)F)nc3)C[C@@H]2CO)n1 (stereo partly drawn) [Example 21, 2-[3-(1-Hydroxy-ethyl)-[1,2,4]triazol-1-yl]-1-{(R)-2-hydroxymethyl-4-[2-trifluoromethyl-4-(2-trifluoromethyl-pyrimidin-5-yl)-thiazol-5-yl]-piperazin-1-yl}-ethanone] | – | –
4.5 nM | 84.8 nM | CC(C)c1ncn(CC(=O)N2CCN(c3sc(C(F)(F)F)nc3-c3cnc(C(F)(F)F)nc3)C[C@H]2CCO)n1 [Example 34, 1-{(R)-2-(2-Hydroxy-ethyl)-4-[2-trifluoromethyl-4-(2-trifluoromethyl-pyrimidin-5-yl)-thiazol-5-yl]-piperazin-1-yl}-2-(3-isopropyl-[1,2,4]triazol-1-yl)-ethanone] | 10% | 34%
42 nM | 3310 nM | O=C(Cn1cnc(-c2ccccc2)n1)N1CCN(c2sc(C(F)(F)F)nc2-c2cnc(C(F)(F)F)nc2)C[C@@H]1CO [Example 19, 1-{(R)-2-Hydroxymethyl-4-[2-trifluoromethyl-4-(2-trifluoromethyl-pyrimidin-5-yl)-thiazol-5-yl]-piperazin-1-yl}-2-(3-phenyl-[1,2,4]triazol-1-yl)-ethanone] | 6% | 41%
1.1 nM | 961 nM | CC(C)c1ncn(CC(=O)N2CCN(c3sc(C(F)(F)F)nc3-c3ccc(C(F)(F)F)nc3)C[C@@H]2CO)n1 [Example 10, 1-{(R)-2-Hydroxymethyl-4-[2-trifluoromethyl-4-(6-trifluoromethyl-pyridin-3-yl)-thiazol-5-yl]-piperazin-1-yl}-2-(3-isopropyl-[1,2,4]triazol-1-yl)-ethanone] | 2% | 12%
6.4 nM | 2380 nM | CC(=O)c1ncn(CC(=O)N2CCN(c3sc(C(F)(F)F)nc3-c3cnc(C(F)(F)F)nc3)C[C@@H]2CO)n1 [Example 20, 2-(3-Acetyl-[1,2,4]triazol-1-yl)-1-{(R)-2-hydroxymethyl-4-[2-trifluoromethyl-4-(2-trifluoromethyl-pyrimidin-5-yl)-thiazol-5-yl]-piperazin-1-yl}-ethanone] | 2% | 3%
1.8 nM | 283 nM | CC(C)c1ncn(CC(=O)N2CCN(c3sc(C(F)(F)F)nc3-c3cnc(C(F)(F)F)nc3)C[C@H]2CO)n1 [Example 4, 1-{(S)-2-Hydroxymethyl-4-[2-trifluoromethyl-4-(2-trifluoromethyl-pyrimidin-5-yl)-thiazol-5-yl]-piperazin-1-yl}-2-(3-isopropyl-[1,2,4]triazol-1-yl)-ethanone] | 4% | 13%
10 nM | 3200 nM | Cc1nc(C)n(CC(=O)N2CCN(c3sc(C(F)(F)F)nc3-c3cnc(C4CC4)nc3)C[C@H]2CO)n1 [Example 8, 1-{(S)-4-[4-(2-Cyclopropyl-pyrimidin-5-yl)-2-trifluoromethyl-thiazol-5-yl]-2-hydroxymethyl-piperazin-1-yl}-2-(3,5-dimethyl-[1,2,4]triazol-1-yl)-ethanone] | 19% | 54%
3 nM | 191 nM | O=C(Cn1cnc(C2CC2)n1)N1CCN(c2sc(C(F)(F)F)nc2-c2cnc(C(F)(F)F)nc2)C[C@H]1CO [Example 3, 2-(3-Cyclopropyl-[1,2,4]triazol-1-yl)-1-{(S)-2-hydroxymethyl-4-[2-trifluoromethyl-4-(2-trifluoromethyl-pyrimidin-5-yl)-thiazol-5-yl]-piperazin-1-yl}-ethanone] | 0% | 12%
3.4 nM | 339 nM | CC(C)c1ncn(CC(=O)N2CCN(c3sc(C(F)(F)F)nc3-c3cnc(C(F)(F)F)nc3)C[C@@H]2CO)n1 [Example 11, 1-{(R)-2-Hydroxymethyl-4-[2-trifluoromethyl-4-(2-trifluoromethyl-pyrimidin-5-yl)-thiazol-5-yl]-piperazin-1-yl}-2-(3-isopropyl-[1,2,4]triazol-1-yl)-ethanone] | 5% | 11%
8.6 nM | 258 nM | O=C(Cn1cnc(C(F)F)n1)N1CCN(c2sc(C(F)(F)F)nc2-c2cnc(C(F)(F)F)nc2)C[C@@H]1CO [Example 38, 2-(3-Difluoromethyl-[1,2,4]triazol-1-yl)-1-{(R)-2-hydroxymethyl-4-[2-trifluoromethyl-4-(2-trifluoromethyl-pyrimidin-5-yl)-thiazol-5-yl]-piperazin-1-yl}-ethanone] | – | –
7.6 nM | 355 nM | CCc1nc(C)n(CC(=O)N2CCN(c3sc(C(F)(F)F)nc3-c3cnc(C(F)(F)F)nc3)C[C@@H]2CO)n1 [Example 24, 2-(3-ethyl-5-methyl-[1,2,4]triazol-1-yl)-1-{(R)-2-hydroxymethyl-4-[2-trifluoromethyl-4-(2-trifluoromethyl-pyrimidin-5-yl)-thiazol-5-yl]-piperazin-1-yl}-ethanone] | – | –
35 nM | 2730 nM | O=C(Cn1cnc(-c2ccccn2)n1)N1CCN(c2sc(C(F)(F)F)nc2-c2cnc(C(F)(F)F)nc2)C[C@@H]1CO [Example 23, 1-{(R)-2-Hydroxymethyl-4-[2-trifluoromethyl-4-(2-trifluoromethyl-pyrimidin-5-yl)-thiazol-5-yl]-piperazin-1-yl}-2-(3-pyridin-2-yl-[1,2,4]triazol-1-yl)-ethanone] | – | –
3.5 nM | 74.2 nM | O=C(Cn1cnc2cccnc21)N1CCN(c2sc(C(F)(F)F)nc2-c2cnc(C(F)(F)F)nc2)C[C@@H]1CO [Example 26, 1-{(R)-2-Hydroxymethyl-4-[2-trifluoromethyl-4-(2-trifluoromethyl-pyrimidin-5-yl)-thiazol-5-yl]-piperazin-1-yl}-2-imidazo[4,5-b]pyridin-3-yl-ethanone] | – | –
3.6 nM | 664 nM | CCc1nc(C)nn1CC(=O)N1CCN(c2sc(C(F)(F)F)nc2-c2cnc(C(F)(F)F)nc2)C[C@@H]1CO [Example 25, 2-(5-ethyl-3-methyl-[1,2,4]triazol-1-yl)-1-{(R)-2-hydroxymethyl-4-[2-trifluoromethyl-4-(2-trifluoromethyl-pyrimidin-5-yl)-thiazol-5-yl]-piperazin-1-yl}-ethanone] | – | –
